Source: BindingDB's records for doi:10.7270/Q27W69N8 (Srmlsc, 2009)

Each compound was assayed against T1, M17 leucyl aminopeptidase (Plasmodium falciparum (isolate 3D7), UniProt Q8IL11) (assay: P. falciparum M17LAP inhibitors, primary screen, biochemical, fluorogenic H-Leu-NHMec substrate, 1536-well (AID 1619)).
T1 sequence (Q8IL11 whole entry): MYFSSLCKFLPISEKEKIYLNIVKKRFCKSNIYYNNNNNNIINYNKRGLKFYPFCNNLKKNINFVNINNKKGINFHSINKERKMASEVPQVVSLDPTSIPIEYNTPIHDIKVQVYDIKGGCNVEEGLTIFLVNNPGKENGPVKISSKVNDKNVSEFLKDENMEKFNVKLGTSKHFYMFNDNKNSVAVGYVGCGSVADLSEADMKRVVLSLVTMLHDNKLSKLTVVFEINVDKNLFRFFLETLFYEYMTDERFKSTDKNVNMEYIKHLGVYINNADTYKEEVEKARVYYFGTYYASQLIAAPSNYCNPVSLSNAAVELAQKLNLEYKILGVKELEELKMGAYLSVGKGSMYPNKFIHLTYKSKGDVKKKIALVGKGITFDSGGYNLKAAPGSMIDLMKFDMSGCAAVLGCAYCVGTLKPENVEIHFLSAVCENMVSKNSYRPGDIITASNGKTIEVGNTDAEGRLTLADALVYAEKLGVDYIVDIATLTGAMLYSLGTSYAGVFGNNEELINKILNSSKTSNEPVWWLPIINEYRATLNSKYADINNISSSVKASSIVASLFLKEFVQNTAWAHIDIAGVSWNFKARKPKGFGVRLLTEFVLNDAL

Compound	IC50 [µM]
Cc1ccc(C2C(C(=O)c3ccc(Br)cc3)C(=O)C(=O)N2Cc2ccco2)o1 (stereo not given) [(4Z)-4-[(4-bromophenyl)-hydroxy-methylene]-1-(2-furfuryl)-5-(5-methyl-2-furyl)pyrrolidine-2,3-quinone]	66.4
N#CC1C(=N)Oc2nc(-c3ccccc3)[nH]c2C1c1cccnc1 (stereo not given) [5-amino-2-phenyl-7-pyridin-3-yl-3,7-dihydropyrano[2,3-d]imidazole-6-carbonitrile]	66.6
Cc1ccc(SCc2n[nH]c3c2C2(CCSCC2)C(C#N)C(=N)O3)cc1 (stereo not given) [6-amino-3-[(4-methylphenyl)sulfanylmethyl]spiro[2H-pyrano[2,3-c]pyrazole-4,4'-thiane]-5-carbonitrile]	91
Cc1[nH][nH]c(=O)c1CCC(=O)NN=Cc1ccc(Cl)cc1	52.6
CCCc1[nH]nc2c1C(CCc1ccccc1)C(C#N)C(=N)O2 (stereo not given) [6-azanyl-4-(2-phenylethyl)-3-propyl-2,4-dihydropyrano[2,3-c]pyrazole-5-carbonitrile]	55.7
Cc1ccc(Nc2nnc(SCC(=O)C(C#N)c3nc4ccccc4[nH]3)s2)c(C)c1 (stereo not given) [2-(1,3-dihydrobenzimidazol-2-ylidene)-4-[[5-(2,4-dimethylanilino)-1,3,4-thiadiazol-2-yl]thio]-3-oxobutanenitrile]	6.03

Further lines, results first:

IC50 [µM]	Compound
60.4	N#CC1C(=N)Oc2[nH]nc(-c3ccccc3)c2C1c1cccnc1 (stereo not given) [MLS000030179]
63.2	Cc1nc2c([nH]1)C1(CCN(Cc3ccccc3)CC1)C(C#N)C(=N)O2 (stereo not given) [MLS000047918]
99.4	O=C(O)c1ccc(CN=Nc2ccc(F)cc2F)cc1 [SMR000364892]
77.1	CCOc1cc(C2c3c(-c4ccccc4)n[nH]c3OC(=N)C2C#N)ccc1O (stereo not given) [SMR000019337]
